According to US7951829B2, “Benzimidazole modulators of VR1” (Janssen Pharmaceutica NV, priority 2006, dated 2011):

Target: T1, hVR1 (Homo sapiens, UniProt Q8NER1)
T1 construct: expressed in transfected cells; host or cells: HEK293
Experiment: Human VR1 (hVR1) Functional Assay (FLIPR intracellular calcium, capsaicin challenge)
Format: cell-based
Details: capsaicin 0.030 μM, HEK293 cells expressing hVR1; for inhibition at 1 µM: test concentration 1 μM

T1 sequence (Q8NER1 whole entry): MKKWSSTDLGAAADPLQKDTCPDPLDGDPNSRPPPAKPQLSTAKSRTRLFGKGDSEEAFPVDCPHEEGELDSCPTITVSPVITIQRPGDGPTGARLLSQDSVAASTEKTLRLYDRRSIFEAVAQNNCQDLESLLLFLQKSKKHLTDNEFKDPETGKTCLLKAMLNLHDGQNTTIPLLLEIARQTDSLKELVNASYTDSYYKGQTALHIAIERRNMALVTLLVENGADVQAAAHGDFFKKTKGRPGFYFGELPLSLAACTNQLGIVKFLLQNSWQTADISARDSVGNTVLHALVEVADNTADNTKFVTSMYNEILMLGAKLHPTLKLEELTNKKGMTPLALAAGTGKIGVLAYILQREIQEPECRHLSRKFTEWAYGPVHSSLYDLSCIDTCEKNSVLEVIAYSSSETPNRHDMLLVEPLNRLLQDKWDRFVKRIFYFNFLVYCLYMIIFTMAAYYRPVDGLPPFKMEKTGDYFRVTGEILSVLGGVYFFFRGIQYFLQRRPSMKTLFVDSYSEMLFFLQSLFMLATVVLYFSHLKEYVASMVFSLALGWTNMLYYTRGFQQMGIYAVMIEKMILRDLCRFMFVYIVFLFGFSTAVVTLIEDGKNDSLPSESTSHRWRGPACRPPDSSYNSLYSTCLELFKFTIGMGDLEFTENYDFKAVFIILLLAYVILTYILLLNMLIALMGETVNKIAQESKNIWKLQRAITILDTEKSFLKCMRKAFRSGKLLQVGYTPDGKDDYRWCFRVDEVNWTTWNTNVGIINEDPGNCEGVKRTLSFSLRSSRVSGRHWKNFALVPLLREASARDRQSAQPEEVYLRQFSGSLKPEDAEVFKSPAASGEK

Row | Compound | IC50 [nM] | inhibition at 1 µM [%]
1 | CC(C)(O)c1ccccc1-c1ccc2[nH]c(/C=C/c3ccc4ncccc4c3)nc2c1 [Cpd 449, (E)-2-{2-[2-(2-quinolin-6-yl-vinyl)-1H-benzimidazol-5-yl]-phenyl}-propan-2-ol] | 9 | 100
2 | NS(=O)(=O)c1ccccc1-c1ccc2[nH]c(/C=C/c3ccccc3Br)nc2c1 [Cpd 366, (E)-2-{2-[2-(2-bromo-phenyl)-vinyl]-1H-benzimidazol-5-yl}-benzenesulfonamide] | 35 | 99
3 | CC(C)(C)c1ccc(/C=C/c2nc3cc(-c4cccc(C(N)=O)c4)ccc3[nH]2)cc1 [Cpd 6, (E)-3-{2-[2-(4-tert-butyl-phenyl)-vinyl]-1H-benzimidazol-5-yl}-benzamide] | – | 12
4 | CC(C)(C)OC(=O)Nc1ccccc1-c1cc2nc(/C=C/c3ccc(C(C)(C)C)cc3)[nH]c2cc1C(F)(F)F [Cpd 54, (E)-(2-{2-[2-(4-tert-butyl-phenyl)-vinyl]-6-trifluoromethyl-1H-benzimidazol-5-yl}-phenyl)-carbamic acid tert-butyl ester] | – | 20
5 | NS(=O)(=O)c1ccccc1-c1ccc2[nH]c(/C=C/c3c(F)cccc3Cl)nc2c1 [Cpd 438, (E)-2-{2-[2-(2-chloro-6-fluoro-phenyl)-vinyl]-1H-benzimidazol-5-yl}-benzenesulfonamide] | 71 | 96
6 | CNS(=O)(=O)c1ccccc1-c1ccc2[nH]c(/C=C/c3ccc(F)c(F)c3F)nc2c1 [Cpd 323, (E)-N-methyl-2-{2-[2-(2,3,4-trifluoro-phenyl)-vinyl]-1H-benzimidazol-5-yl}-benzenesulfonamide] | 40 | 97
7 | NC(=O)c1ccccc1-c1ccc2[nH]c(C3CC3c3ccc(C(F)(F)F)cc3)nc2c1 (stereo not drawn) [Cpd 498, 2-{2-[2-(4-trifluoromethyl-phenyl)-cyclopropyl]-1H-benzimidazol-5-yl}-benzamide] | 19 | 100
8 | OCc1ccccc1-c1cc2nc(/C=C/c3ccc(C(F)(F)F)cc3)[nH]c2cc1F [Cpd 61, (E)-(2-{6-fluoro-2-[2-(4-trifluoromethyl-phenyl)-vinyl]-1H-benzimidazol-5-yl}-phenyl)-methanol] | 75 | 100
9 | CC(=O)c1ccc(/C=C/c2nc3cc(-c4ccccc4C(C)(C)O)ccc3[nH]2)cc1 [Cpd 448, (E)-1-[4-(2-{5-[2-(1-hydroxy-1-methyl-ethyl)-phenyl]-1H-benzimidazol-2-yl}-vinyl)-phenyl]-ethanone] | 17 | 99
10 | CC(C)(C)c1ccc(CCc2nc3cc(-c4cccc(O)c4)ccc3[nH]2)cc1 [Cpd 33, 3-{2-[2-(4-tert-butyl-phenyl)-ethyl]-1H-benzimidazol-5-yl}-phenol] | 1700 | –
11 | NS(=O)(=O)c1ccccc1-c1ccc2[nH]c(CCc3c(F)cccc3F)nc2c1 [Cpd 386, 2-{2-[2-(2,6-difluoro-phenyl)-ethyl]-1H-benzimidazol-5-yl}-benzenesulfonamide] | 43 | 96
12 | NS(=O)(=O)Nc1ccccc1-c1ccc2[nH]c(/C=C/c3ccc(C(F)(F)F)cc3)nc2c1 [Cpd 470, (E)-5-(2-aminosulfonylamino-phenyl)-2-[2-(4-trifluoromethyl-phenyl)-vinyl]-1H-benzimidazole] | 45 | 97
13 | CCOc1cccc(/C=C/c2nc3cc(-c4ccccc4S(N)(=O)=O)ccc3[nH]2)c1 [Cpd 425, (E)-2-{2-[2-(3-ethoxy-phenyl)-vinyl]-1H-benzimidazol-5-yl}-benzenesulfonamide] | – | 2
14 | CNS(=O)(=O)c1ccccc1-c1ccc2[nH]c(/C=C/c3ccc(C(=O)O)cc3)nc2c1 [Cpd 453, (E)-4-{2-[5-(2-methylsulfamoyl-phenyl)-1H-benzimidazol-2-yl]-vinyl}-benzoic acid] | – | 22
15 | NS(=O)(=O)c1cc(C(F)(F)F)ccc1-c1ccc2[nH]c(/C=C/c3ccc(C(F)(F)F)cc3)nc2c1 [Cpd 446, (E)-5-trifluoromethyl-2-{2-[2-(4-trifluoromethyl-phenyl)-vinyl]-1H-benzimidazol-5-yl}-benzenesulfonamide] | 76 | 97
16 | CC(C)(C)OC(=O)Nc1ccccc1-c1ccc2[nH]c(/C=C/c3ccc(C(C)(C)C)cc3)nc2c1 [Cpd 10, (E)-(2-{2-[2-(4-tert-butyl-phenyl)-vinyl]-1H-benzimidazol-5-yl}-phenyl)-carbamic acid tert-butyl ester] | 280 | 94
17 | NS(=O)(=O)c1ccccc1-c1ccc2[nH]c(/C=C/c3ccc(F)c(Cl)c3)nc2c1 [Cpd 432, (E)-2-{2-[2-(3-chloro-4-fluoro-phenyl)-vinyl]-1H-benzimidazol-5-yl}-benzenesulfonamide] | 15 | 98
18 | NS(=O)(=O)c1ccccc1-c1ccc2[nH]c([C@@H]3C[C@H]3c3ccc(C(F)(F)F)cc3)nc2c1 [Cpd 502, 2-{2-[(1R,2R)-2-(4-trifluoromethyl-phenyl)-cyclopropyl]-1H-benzimidazol-5-yl}-benzenesulfonamide] | 190 | 82

Row | Compound | IC50 [nM] | inhibition at 1 µM [%]
19 | CCS(=O)(=O)Nc1ccccc1-c1ccc2[nH]c(/C=C/c3ccc(C(F)(F)F)cc3)nc2c1 [Cpd 461, (E)-ethanesulfonic acid (2-{2-[2-(4-trifluoromethyl-phenyl)-vinyl]-1H-benzimidazol-5-yl}-phenyl)-amide] | 5 | 99
20 | NS(=O)(=O)c1ccccc1-c1ccc2[nH]c(/C=C/c3ccc(F)cc3C(F)(F)F)nc2c1 [Cpd 367, (E)-2-{2-[2-(4-fluoro-2-trifluoromethyl-phenyl)-vinyl]-1H-benzimidazol-5-yl}-benzenesulfonamide] | 53 | 98
21 | NS(=O)(=O)c1ccccc1-c1ccc2[nH]c(CCc3ccccc3F)nc2c1 [Cpd 419, 2-{2-[2-(2-fluoro-phenyl)-ethyl]-1H-benzimidazol-5-yl}-benzenesulfonamide] | 32 | 93
22 | NS(=O)(=O)c1ccc(F)cc1-c1ccc2[nH]c(/C=C/c3ccc(C(F)(F)F)cc3)nc2c1 [Cpd 441, (E)-4-fluoro-2-{2-[2-(4-trifluoromethyl-phenyl)-vinyl]-1H-benzimidazol-5-yl}-benzenesulfonamide] | – | 40
23 | CNS(=O)(=O)c1ccccc1-c1ccc2[nH]c(CCc3cccc(C(F)(F)F)c3)nc2c1 [Cpd 350, N-methyl-2-{2-[2-(3-trifluoromethyl-phenyl)-ethyl]-1H-benzimidazol-5-yl}-benzenesulfonamide] | 33 | 100
24 | CC(C)(C)c1ccc(/C=C/c2nc3cc(-c4ccccc4C(C)(C)O)ccc3[nH]2)cc1 [Cpd 463, (E)-2-(2-{2-[2-(4-tert-butyl-phenyl)-vinyl]-1H-benzimidazol-5-yl}-phenyl)-propan-2-ol] | 14 | 100
25 | CC(C)c1ccc(/C=C/c2nc3cc(-c4ccccc4S(N)(=O)=O)ccc3[nH]2)cc1 [Cpd 429, (E)-2-{2-[2-(4-isopropyl-phenyl)-vinyl]-1H-benzimidazol-5-yl}-benzenesulfonamide] | 6 | 98
26 | NS(=O)(=O)c1ccccc1-c1ccc2[nH]c(/C=C/c3cc(F)c(F)cc3F)nc2c1 [Cpd 371, (E)-2-{2-[2-(2,4,5-trifluoro-phenyl)-vinyl]-1H-benzimidazol-5-yl}-benzenesulfonamide] | 18 | 98
27 | CC(C)(O)c1ccccc1-c1ccc2[nH]c(/C=C/c3ccccc3C(F)(F)F)nc2c1 [Cpd 482, (E)-2-(2-{2-[2-(2-trifluoromethyl-phenyl)-vinyl]-1H-benzimidazol-5-yl}-phenyl)-propan-2-ol] | 13 | 100
28 | CC(C)(C)NS(=O)(=O)c1ccccc1-c1ccc2[nH]c(/C=C/c3ccc(C(F)(F)F)cc3)nc2c1 [Cpd 309, (E)-N-tert-butyl-2-{2-[2-(4-trifluoromethyl-phenyl)-vinyl]-1H-benzimidazol-5-yl}-benzenesulfonamide] | – | 73
29 | CC(C)(C)c1ccc(/C=C/c2nc3cc(-c4ccc(C(N)=O)cc4)ccc3[nH]2)cc1 [Cpd 7, (E)-4-{2-[2-(4-tert-butyl-phenyl)-vinyl]-1H-benzimidazol-5-yl}-benzamide] | – | 10
30 | CC(C)(C)NS(=O)(=O)c1ccccc1-c1ccc2[nH]c(C3CC3c3ccc(C(F)(F)F)cc3)nc2c1 (stereo not drawn) [Cpd 499, N-tert-butyl-2-{2-[2-(4-trifluoromethyl-phenyl)-cyclopropyl]-1H-benzimidazol-5-yl}-benzenesulfonamide] | – | 7
31 | NC(=O)c1ccccc1-c1ccc2[nH]c(/C=C/c3ccc(S(=O)(=O)C(F)(F)F)cc3)nc2c1 [Cpd 44, (E)-2-{2-[2-(4-trifluoromethanesulfonyl-phenyl)-vinyl]-1H-benzimidazol-5-yl}-benzamide] | 300 | 95
32 | NS(=O)(=O)c1ccccc1-c1ccc2[nH]c(/C=C/c3ccc(F)c(Br)c3)nc2c1 [Cpd 439, (E)-2-{2-[2-(3-bromo-4-fluoro-phenyl)-vinyl]-1H-benzimidazol-5-yl}-benzenesulfonamide] | 23 | 97
33 | CNS(=O)(=O)c1ccccc1-c1ccc2[nH]c(/C=C/c3ccc(Cl)c(Cl)c3)nc2c1 [Cpd 316, (E)-2-{2-[2-(3,4-dichloro-phenyl)-vinyl]-1H-benzimidazol-5-yl}-N-methyl-benzenesulfonamide] | 12 | 101
34 | CC(=O)Nc1ccccc1-c1ccc2[nH]c(/C=C/c3ccc(F)c(F)c3)nc2c1 [Cpd 24, (E)-N-(2-{2-[2-(3,4-difluoro-phenyl)-vinyl]-1H-benzimidazol-5-yl}-phenyl)-acetamide] | – | 8
35 | CS(=O)(=O)Nc1ccccc1-c1ccc2[nH]c(C3CC3c3ccc(C(F)(F)F)cc3)nc2c1 (stereo not drawn) [Cpd 467, N-(2-{2-[2-(4-trifluoromethyl-phenyl)-cyclopropyl]-1H-benzimidazol-5-yl}-phenyl)-methanesulfonamide] | 182 | 86
